Experimental data from patent US5574033A, “Heterocyclic compound and cardiotonic agent containing the same as effective component” (Zenyaku Kogyo Kabushiki Kaisha, priority 1991, dated 1996).

Tests used:
[1] = system: right atria; assay: Pharmacological Test 1: spontaneous contraction of isolated right atria (chronotropic effect); set-up: species or system male Hartley guinea pig; settings: Cavia porcellus; 3×10^-5 M; percentage of atrial rate after injection, rate before injection = 100%; 30° C.
Method: (§1) Nos. of the compounds in the pharmacological tests 1 and 2 correspond to those in Examples referred to hereinafter.
(§2) A heart was removed from a male Hartley guinea pig (having a body weight of about 400 g or so) and a right atrium and papillary muscles of a right ventricle were separated from the removed heart. These preparations were suspended in 15 ml of Magnus' bath under load of 0.5 g (papillary muscles) or 1.0 g (right atria). Contraction of papillary muscles upon electric stimulation (1 Hz, 5 msec, 1.5×threshold voltage) and spontaneous contraction of the right atria were recorded through a transducer (manufactured by Orientec, T7-8-240) by a polygraph system (manufactured by NIHONKOHDEN, RMP-6008 and WT-685G).
(§3) Krebs-Henseleit solution was used as nutritive liquid bubbled with mixed gases of 95% O2 with 5% CO2 at 30° C. The value of inotropic effect is a percentage of increment of contractile force by samples when that by isoprotelenol (1×10^-8 M) is considered to be 100%. The value of chronotropic effect is a percentage of atrial rate after the injection of samples when the atrial rate before the injection is considered to be 100%.

[2] = system: papillary muscles of a right ventricle; assay: Pharmacological Test 1: contraction of isolated right ventricular papillary muscles upon electric stimulation (inotropic effect); set-up: species or system male Hartley guinea pig; settings: 3×10^-5 M; percentage of increment of contractile force, isoprotelenol (1×10^-8 M) = 100%; 1 Hz stimulation, 30° C.
Method: as §1, §2, §3

SMILES	activity at 30 µM [1] [%]	Inotropic Effect [2] [%]
O=C1CSC(C2=CCN(CC(O)c3cccc(C(F)(F)F)c3)CC2)=NN1 (centres unmarked) [Compound 34, 2-[1-[2-Hydroxy-2-[3-(trifluoromethyl)phenyl]ethyl]-1,2,5,6-tetrahydropyrid-4-yl]-4H,6H-1,3,4-thiadiazin-5-one]	98.1	49.9
O=C1CSC(C2=CCN(CC(O)c3ccc(F)cc3)CC2)=NN1 (centres unmarked) [Compound 35, 2-[1-[2-(4-Fluorophenyl)-2-hydroxyethyl]-1,2,5,6-tetrahydropyrid-4-yl]-4H,6H-1,3,4-thiadiazin-5-one]	90.7	63.5
Cc1cccc(C(O)CN2CC=C(C3=NNC(=O)CS3)CC2)c1 (centres unmarked) [Compound 20, 2-[1-[2-Hydroxy-2-(3-methylphenyl)ethyl]-1,2,5,6-tetrahydropyrid-4-yl]-4H,6H-1,3,4-thiadiazin-5-one]	87.5	65.7
O=C1CCC(C2=CCN(CC(O)c3ccc([N+](=O)[O-])cc3)CC2)=NN1 (centres unmarked) [Compound 53, 4,5-Dihydro-6-[1-[2-hydroxy-2-(4-nitrophenyl)ethyl]-1,2,5,6-tetrahydropyrid-4-yl]pyridazin-3 (2H)-one]	87.8	102.9
COc1ccc(C(O)CN2CC=C(C3=NNC(=O)CC3)CC2)cc1 (centres unmarked) [Compound 49, 4,5-Dihydro-6-[1-[2-hydroxy-2-(4-methoxyphenyl)ethyl]-1,2,5,6-tetrahydropyrid-4-yl]pyridazin-3(2H)-one]	87.6	27.7
COc1ccc(C(CN2CC=C(C3=NNC(=O)CS3)CC2)OC(C)C)cc1 (centres unmarked) [Compound 71, 2-[1-[2-Isopropoxy-2-(4-methoxyphenyl)ethyl]-1,2,5,6-tetrahydropyrid-4-yl]-4H,6H-1,3,4-thiadiazin-5-one]	98.7	25.3
COc1ccc(C(CN2CC=C(C3=NNC(=O)CS3)CC2)OC)cc1 (centres unmarked) [Compound 70, 2-[1-[2-Methoxy-2-(4-methoxyphenyl)ethyl]-1,2,5,6-tetrahydropyrid-4-y1]-4H,6H-1,3,4-thiadiazin-5-one]	99.2	56.0
Cc1ccc(C(O)CN2CC=C(C3=NNC(=O)SC3)CC2)cc1 (centres unmarked) [Compound 43, 5-[1-[2-Hydroxy-2-(4-methylphenyl)ethyl]-1,2,5,6-tetrahydropyrid-4-yl]-3H,6H-1,3,4-thiadiazin-2-one]	85.2	57.2
O=C1CSC(C2=CCN(CC(O)c3cccc([N+](=O)[O-])c3)CC2)=NN1 (centres unmarked) [Compound 30, 2-[1-[2-Hydroxy-2-(3-nitrophenyl)ethyl]-1,2,5,6-tetrahydropyrid-4-yl]-4H,6H-1,3,4-thiadiazin-5-one]	100	113.9
O=C1CCC(C2=CCN(CC(O)c3ccccc3Cl)CC2)=NN1 (centres unmarked) [Compound 50, 6-[1-[2-(2-Chlorophenyl)-2-hydroxyethyl]-1,2,5,6-tetrahydropyrid-4-yl]-4,5-dihydropyridazin-3 (2H)-one]	98.6	38.9
O=C1NN=C(C2=CCN(CC(O)c3cccc(C(F)(F)F)c3)CC2)CS1 (centres unmarked) [Compound 48, 5-[1-[2-Hydroxy-2-[3-(trifluoromethyl)phenyl]ethyl]-1,2,5,6-tetrahydropyrid-4-yl]-3H,6H-1,3,4-thiadiazin-2-one]	77.7	45.4
Cc1ccc(C(O)CN2CC=C(C3=NNC(=O)CS3)CC2)cc1 (centres unmarked) [Compound 21, 2-[1-[2-Hydroxy-2-(4-methylphenyl)ethyl]-1,2,5,6-tetrahydropyrid-4-yl]-4H,6H-1,3,4-thiadiazin-5-one]	84.5	92.6
O=C1CCC(c2ccncc2)=NN1 [c, 4,5-Dihydro-6-(4-pyridyl)-pyridazin-3(2H)-one, reference compound]	110	7.3
